# Test results published in patent US11957783B2, “Topical immunosensitizers to treat viral and fungal infections” (Squarex, LLC, priority 2018, dated 2024).
# Assays:
# Type in all cases: in vivo, human
# [1] = Adverse events after single topical SADBE dose, Phase 1 study (Example 1)
# Method: (§1) After a screening visit at which blood was drawn to test for IgG antibody against HSV-1 and subjects were interviewed for inclusion/exclusion criteria, selected subjects returned for blood draws on day 1. After the blood draw on day 1, subjects in group A only were dosed with SADBE. A petrolatum donut was applied with a cotton swab to form about a 1 cm diameter donut on skin on the inner aspect of the upper arm. Then a separate cotton swab was dipped in a 2% SADBE solution (w/v) in DMSO, and the swab was then used to apply about 10-20 mg of solution over about a 1 cm diameter circle within the petrolatum donut. Immediately after application, the application site was covered with TEGADERM. Subjects were advised to remove the TEGADERM and rinse and wipe the spot three hours later. The group A subjects then returned for blood draws on days 15 and 57 and were queried about adverse events on those dates.
# Of the 12 subjects treated, two experienced stinging at the application site, and one had nausea that was ruled possibly related to the study drug.
# [2] = tested on: Interleukin 2; assay: Plasma level of Interleukin 2; details: for Interleukin 2 in plasma, group average / Interleukin 2 in plasma, number of subjects with undetectable levels: n = 12
# Method: as §1
# At this study visit where blood was drawn it was tested for blood cell counts, various cytokine levels, and anti-HSV-1 IgG quantitative levels.
# All subjects had detectable IL-2 and the large majority had detectable IL-2 receptor.
# [3] = tested on: herpes labialis outbreak; assay: Clinical trial of herpes labialis outbreaks after sensitization dose (Example 2)
# Method: The median time to the next outbreak for the placebo group was 40 days vs more than 122 days for the 2.0% SADBE group, which difference was highly significant (P=0.009) (Palli 2017). SADBE is a topical immunosensitizer that induces a delayed-type hypersensitivity response and is commonly used in the treatment of verruca vulgaris and alopecia areata (Lee 1999; Silverberg 2000, Rokhshar 1998). […]
# (p<0.05). The average days to the first outbreak after the sensitization dose was also measured. […] The A: placebo, 0% SADBE in DMSO.
smiles,measurement,setting,value
"CCCCOc1c(OCCCC)c(=O)c1=O [SADBE, 3,4-Dibutoxy-3-cyclobutene-1,2-dione]",rashes or delayed-type hypersensitivity reactions,[1]; 12 subjects treated,No rashes or delayed-type hypersensitivity reactions were reported
same,tolerability of study drug,"[1]; 12 subjects, single topical 2% SADBE in DMSO on arm",well tolerated
same,subjects who experienced stinging at the application site,[1]; of the 12 subjects treated,two
same,subjects with nausea ruled possibly related to the study drug,[1]; of the 12 subjects treated,one
same,"Interleukin 2 in plasma, Sample/A1",[2]; A15 / group A day 1,0.96
same,"Interleukin 2 in plasma, Sample minus A1",[2]; A15 minus group A day 1,-0.54 pg/mL
same,"Interleukin 2 in plasma, Sample/A1",[2]; A57 / group A day 1,0.84
same,"Interleukin 2 in plasma, Sample minus A1",[2]; A57 minus group A day 1,-2.13 pg/mL
same,"Interleukin 2 in plasma, group average",[2]; group A day 15 (A15),12.90 pg/mL
same,"Interleukin 2 in plasma, number of subjects with undetectable levels",[2]; group A day 15 (A15),0
same,"Interleukin 2 in plasma, group average",[2]; group A day 57 (A57),11.30 pg/mL
same,"Interleukin 2 in plasma, number of subjects with undetectable levels",[2]; group A day 57 (A57),0
same,proportion who had a first outbreak between 30 and 120 days after receiving the sensitization dose,"[3]; pooled groups B and C (2% SADBE in DMSO sensitization), placebo group A 4 of 14",5 of 26
same,"median time to the next outbreak, outbreaks in the 21 days after the sensitization dose excluded","[3]; treatment group, counting from day of sensitization dose, placebo 56 days",greater than 120 days
same,median time to the next outbreak,"[3]; treatment group, from sensitization dose (2% SADBE), placebo 42 days, log rank P 0.009",greater than 120 days
same,"median time to the next outbreak, counting from day 21 after the sensitization dose","[3]; treatment group, placebo 35 days",greater than 99 days
same,subsequent outbreak during the study time,[3]; treatment groups B and C receiving 2% SADBE in DMSO as sensitization dose,usually did not have a subsequent outbreak during the study time
same,median time to next HSV outbreak in treated patients without visible erythema at application site,[3]; versus placebo,longer median time to the next HSV outbreak than patients receiving placebo
